# Results: patent US11076595B2, “1-(n,n-disubstituted carbamoyl) 4-(substituted sulfonyl)triazolin-5-one derivative, 4-(n,n-disubstituted carbamoyl) 1-(substituted sulfonyl)triazolin-5-one derivative, and herbicide containing said derivative as active ingredient” (HOKKO CHEMICAL INDUSTRY CO., LTD., priority 2017, dated 2021)
# Tests used:
# Format in all cases: in vivo
# Scirpus juncoides [1] = assay: Test Example 11: herbicidal effect test by soil treatment in paddy field; details: 120 g/10a active ingredient, 14 days after treatment
# Summary of the method: (§1)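 Pre-emergence paddy test, 120 g a.i./10 are, emulsifiable concentrate diluted in water and added dropwise to ~3 cm flood water right after sowing (30 seeds/species, 0–1 cm depth, fertilized puddled soil). Greenhouse; 2 replicates; dry-weight suppression (%) vs untreated, day 14.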
# Lindernia pyxidaria [2] = assay: as above; details: 120 g/10a active ingredient, 14 days after treatment
# Summary of the method: as §1
# Echinochloa crus-galli [3] = assay: as above; details: 120 g/10a active ingredient, 14 days after treatment
# Summary of the method: as §1
# Monochoria vaginalis [4] = assay: as above; details: 120 g/10a active ingredient, 14 days after treatment
# Summary of the method: as §1
# Scirpus juncoides [5] = assay: Test Example 12: herbicidal effect test by treatment during growing period in paddy field; details: 120 g/10a; treatment seven days after sowing in flooded paddy pot; assessed 14 days after treatment
# Description: (§2) This test was performed with two replications per one formulation concentration plot, and 14 days after the formulation treatments, the weed suppression rate (%) was determined according to the following equation (Math. 2). Weed suppression rate (%)=(1−average dry weight (g) of plants in treated plots/average dry weight (g) of plants in untreated plots)×100 [Math. 2]
# (§3) A Wagner pot having an area of 1/10000 are was filled with paddy field soil and after adding water, a chemical fertilizer (N:P:K=17:17:17) was mixed, followed by puddling. Thereafter, 30 grains of each of Echinochloa crus-galli, broad-leaved weed (Lindernia pyxidaria, Monochoria vaginalis) and Scirpus juncoides seeds were sown to a depth of 0 to 1 cm. Immediately after the sowing, the pot was flooded, and the depth of water was kept at about 3 cm. The pot was subsequently managed in a glass greenhouse. Seven Days after sowing, an emulsifiable concentrate prepared according to Formulation Example 15 by using the compound shown in Table 10 below was diluted with water, and a predetermined amount of the water-diluted formulation was added dropwise. The application rate of the active ingredient, by conversion, corresponded to 120 g per 10 are. The test was performed with two replications per one formulation concentration plot, and 14 days after the formulation treatments, the weed suppression rate (%) was determined according to the equation (Math. 2).
# Lindernia pyxidaria [6] = assay: as above; details: 120 g/10a; treatment seven days after sowing in flooded paddy pot; assessed 14 days after treatment
# Description: as §2, §3
# Echinochloa crus-galli [7] = assay: as above; details: 120 g/10a; treatment seven days after sowing in flooded paddy pot; assessed 14 days after treatment
# Description: as §2, §3
# Monochoria vaginalis [8] = assay: as above; details: 120 g/10a; treatment seven days after sowing in flooded paddy pot; assessed 14 days after treatment
# Description: as §2, §3
smiles,measurement,setting,value
CC(C)N(C(=O)n1cnn(S(=O)(=O)c2ccc(F)cc2)c1=O)c1c(F)cc(F)cc1F [Compound 11-479],Weed suppression rate (%) Scirpus juncoides,Scirpus juncoides [1],100%
same,Weed suppression rate (%) Lindemia pyxidaria,Lindernia pyxidaria [2],100%
same,Weed suppression rate (%) Echinochloa crus-galli,Echinochloa crus-galli [3],100%
same,Weed suppression rate (%) Monochoria vaginalis,Monochoria vaginalis [4],80%
same,Weed suppression rate (%) Scirpus juncoides,Scirpus juncoides [5],80%
same,Weed suppression rate (%) Lindemia pyxidaria,Lindernia pyxidaria [6],70%
same,Weed suppression rate (%) Echinochloa crus-galli,Echinochloa crus-galli [7],100%
same,Weed suppression rate (%) Monochoria vaginalis,Monochoria vaginalis [8],80%
CC(C)N(C(=O)n1cnn(S(=O)(=O)c2ccc(F)cc2)c1=O)c1c(F)c(F)cc(F)c1F [Compound 11-480],Weed suppression rate (%) Scirpus juncoides,Scirpus juncoides [1],90%
same,Weed suppression rate (%) Lindemia pyxidaria,Lindernia pyxidaria [2],90%
same,Weed suppression rate (%) Echinochloa crus-galli,Echinochloa crus-galli [3],100%
same,Weed suppression rate (%) Monochoria vaginalis,Monochoria vaginalis [4],80%
same,Weed suppression rate (%) Scirpus juncoides,Scirpus juncoides [5],100%
same,Weed suppression rate (%) Lindemia pyxidaria,Lindernia pyxidaria [6],80%
same,Weed suppression rate (%) Echinochloa crus-galli,Echinochloa crus-galli [7],100%
same,Weed suppression rate (%) Monochoria vaginalis,Monochoria vaginalis [8],70%
CC(C)N(C(=O)n1cnn(S(=O)(=O)c2ccc(F)cc2)c1=O)c1ccc(Br)cc1Cl [Compound 11-486],Weed suppression rate (%) Scirpus juncoides,Scirpus juncoides [1],80%
same,Weed suppression rate (%) Lindemia pyxidaria,Lindernia pyxidaria [2],90%
same,Weed suppression rate (%) Echinochloa crus-galli,Echinochloa crus-galli [3],90%
same,Weed suppression rate (%) Monochoria vaginalis,Monochoria vaginalis [4],80%
same,Weed suppression rate (%) Scirpus juncoides,Scirpus juncoides [5],60%
same,Weed suppression rate (%) Lindemia pyxidaria,Lindernia pyxidaria [6],70%
same,Weed suppression rate (%) Echinochloa crus-galli,Echinochloa crus-galli [7],60%
same,Weed suppression rate (%) Monochoria vaginalis,Monochoria vaginalis [8],70%
CC(C)N(C(=O)n1cnn(S(=O)(=O)c2ccccc2Cl)c1=O)c1ccccc1F [Compound 11-502],Weed suppression rate (%) Scirpus juncoides,Scirpus juncoides [1],90%
same,Weed suppression rate (%) Lindemia pyxidaria,Lindernia pyxidaria [2],80%
same,Weed suppression rate (%) Echinochloa crus-galli,Echinochloa crus-galli [3],90%
same,Weed suppression rate (%) Monochoria vaginalis,Monochoria vaginalis [4],80%
same,Weed suppression rate (%) Scirpus juncoides,Scirpus juncoides [5],90%
same,Weed suppression rate (%) Lindemia pyxidaria,Lindernia pyxidaria [6],80%
same,Weed suppression rate (%) Echinochloa crus-galli,Echinochloa crus-galli [7],90%
same,Weed suppression rate (%) Monochoria vaginalis,Monochoria vaginalis [8],80%
CC(C)N(C(=O)n1cnn(S(=O)(=O)c2ccccc2Cl)c1=O)c1cccc(F)c1F [Compound 11-511],Weed suppression rate (%) Scirpus juncoides,Scirpus juncoides [1],100%
same,Weed suppression rate (%) Lindemia pyxidaria,Lindernia pyxidaria [2],100%
same,Weed suppression rate (%) Echinochloa crus-galli,Echinochloa crus-galli [3],100%
same,Weed suppression rate (%) Monochoria vaginalis,Monochoria vaginalis [4],90%
same,Weed suppression rate (%) Scirpus juncoides,Scirpus juncoides [5],100%
same,Weed suppression rate (%) Lindemia pyxidaria,Lindernia pyxidaria [6],80%
same,Weed suppression rate (%) Echinochloa crus-galli,Echinochloa crus-galli [7],100%
same,Weed suppression rate (%) Monochoria vaginalis,Monochoria vaginalis [8],100%
CC(C)N(C(=O)n1cnn(S(=O)(=O)c2ccccc2Cl)c1=O)c1ccc(F)c(F)c1F [Compound 11-515],Weed suppression rate (%) Scirpus juncoides,Scirpus juncoides [1],100%
same,Weed suppression rate (%) Lindemia pyxidaria,Lindernia pyxidaria [2],90%
same,Weed suppression rate (%) Echinochloa crus-galli,Echinochloa crus-galli [3],100%
same,Weed suppression rate (%) Monochoria vaginalis,Monochoria vaginalis [4],80%
same,Weed suppression rate (%) Scirpus juncoides,Scirpus juncoides [5],100%
same,Weed suppression rate (%) Lindemia pyxidaria,Lindernia pyxidaria [6],70%
same,Weed suppression rate (%) Echinochloa crus-galli,Echinochloa crus-galli [7],100%
same,Weed suppression rate (%) Monochoria vaginalis,Monochoria vaginalis [8],100%
CC(C)N(C(=O)n1cnn(S(=O)(=O)c2ccccc2Cl)c1=O)c1c(F)cc(F)cc1F [Compound 11-516],Weed suppression rate (%) Scirpus juncoides,Scirpus juncoides [1],90%
same,Weed suppression rate (%) Lindemia pyxidaria,Lindernia pyxidaria [2],90%
same,Weed suppression rate (%) Echinochloa crus-galli,Echinochloa crus-galli [3],100%
same,Weed suppression rate (%) Monochoria vaginalis,Monochoria vaginalis [4],80%
same,Weed suppression rate (%) Scirpus juncoides,Scirpus juncoides [5],70%
same,Weed suppression rate (%) Lindemia pyxidaria,Lindernia pyxidaria [6],70%
same,Weed suppression rate (%) Echinochloa crus-galli,Echinochloa crus-galli [7],100%
same,Weed suppression rate (%) Monochoria vaginalis,Monochoria vaginalis [8],80%
CC(C)N(C(=O)n1cnn(S(=O)(=O)c2ccccc2Cl)c1=O)c1ccc(F)cc1Cl [Compound 11-519],Weed suppression rate (%) Scirpus juncoides,Scirpus juncoides [1],100%
same,Weed suppression rate (%) Lindemia pyxidaria,Lindernia pyxidaria [2],100%
same,Weed suppression rate (%) Echinochloa crus-galli,Echinochloa crus-galli [3],100%
same,Weed suppression rate (%) Monochoria vaginalis,Monochoria vaginalis [4],70%
same,Weed suppression rate (%) Scirpus juncoides,Scirpus juncoides [5],80%
same,Weed suppression rate (%) Lindemia pyxidaria,Lindernia pyxidaria [6],70%
same,Weed suppression rate (%) Echinochloa crus-galli,Echinochloa crus-galli [7],80%
same,Weed suppression rate (%) Monochoria vaginalis,Monochoria vaginalis [8],70%
